In one data set the target is T1, PSMA (Homo sapiens, UniProt Q04609).
T1 construct: endogenous in cells; host or cells: LNCaP prostate cancer cells
As to the kind of experiment: In vitro competition binding assay using LNCaP cells and [18F]DCFPyL as radioligand. To be noted: displacement of [18F]DCFPyL from LNCaP cells, n = 3; read-out: PSMA binding affinity (Ki). The method, then:
The binding assays were conducted following previously published procedures using LNCaP cells and [^18F]DCFPyL as the radioligand [17]-[19]. Briefly, LNCaP cells (400,000/well) were plated onto a 24-well poly-D-lysine coated plate for 48 h. Growth media was removed and replaced with HEPES buffered saline (50 mM HEPES, pH 7.5, 0.9% sodium chloride) and the cells were incubated for 1 h at 37 °C. [^18F]DCFPyL (0.1 nM) was added to each well (in triplicate) containing various concentrations (0.5 mM - 0.05 nM) of tested nonradioactive Ga-complexed compounds. Non-specific binding was determined in the presence of 10 µM non-radiolabeled DCFPyL. The assay mixtures were further incubated for 1 h at 37 °C with gentle agitation. Then, the buffer and radioligand were removed, and cells were washed twice with cold HEPES buffered saline. To harvest the cells, 400 µL of 0.25 % trypsin solution was added to each well. Radioactivity was measured on a PerkinElmer (Waltham, MA) Wizard2 2480 automatic gamma counter. Data analyses of Ki were performed using the nonlinear regression algorithm of GraphPad (San Diego, CA) Prism 7 software.
Background: Displacement assays read how much labelled ligand stays bound in the presence of the test substance.

Another data set relates to LNCaP tumor-bearing mice. As to the kind of experiment: Ex vivo biodistribution of 68Ga-labeled ligands in LNCaP tumor-bearing NSG mice. As to conditions: 1 h post-injection.

Broadly, the Ki is the equilibrium dissociation constant of an inhibitor or competing ligand from its target.

T1 sequence (Q04609 whole entry): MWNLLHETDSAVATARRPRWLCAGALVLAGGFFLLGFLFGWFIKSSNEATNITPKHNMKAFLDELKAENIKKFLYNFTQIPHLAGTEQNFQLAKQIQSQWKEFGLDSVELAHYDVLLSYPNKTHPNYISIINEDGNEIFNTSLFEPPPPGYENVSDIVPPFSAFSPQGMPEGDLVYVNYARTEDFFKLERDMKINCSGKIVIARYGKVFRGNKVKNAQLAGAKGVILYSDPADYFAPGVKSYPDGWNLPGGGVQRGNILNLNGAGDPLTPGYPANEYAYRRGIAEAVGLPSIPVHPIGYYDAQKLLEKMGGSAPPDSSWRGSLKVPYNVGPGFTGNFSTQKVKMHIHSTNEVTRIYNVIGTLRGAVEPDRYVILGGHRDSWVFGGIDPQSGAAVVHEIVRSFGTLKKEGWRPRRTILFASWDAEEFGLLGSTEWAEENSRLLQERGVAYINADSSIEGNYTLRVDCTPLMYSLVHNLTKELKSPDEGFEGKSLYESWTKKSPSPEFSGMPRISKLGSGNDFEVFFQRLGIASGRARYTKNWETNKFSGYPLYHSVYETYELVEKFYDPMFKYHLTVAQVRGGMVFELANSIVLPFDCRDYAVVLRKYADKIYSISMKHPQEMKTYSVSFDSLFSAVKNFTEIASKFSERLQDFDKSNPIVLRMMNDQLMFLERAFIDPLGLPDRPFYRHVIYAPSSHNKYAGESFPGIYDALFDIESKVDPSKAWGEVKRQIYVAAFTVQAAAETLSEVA

With `O=C([O-])CN1CCN(CC(=O)[O-])CCN(CC(=O)NCC2CCC(C(=O)NC(Cc3c4ccccc4cc4ccccc34)C(=O)NCCCCC(NC(=O)NC(CC(=O)O)C(=O)O)C(=O)O)CC2)CCN(CC(=O)[O-])CC1.[Ga+3]` (stereo not drawn) [Ga-HTK03161], the Ki on PSMA worked out at 3.88 ± 0.66 nM.
In the case of `O=C([O-])CN1CCN(CC(=O)[O-])CCN(CC(=O)NCC2CCC(C(=O)NC(Cc3c4ccccc4cc4ccccc34)C(=O)NCCCCC(NC(=O)NC(CCCCC(=O)O)C(=O)O)C(=O)O)CC2)CCN(CC(=O)[O-])CC1.[68Ga+3]` (single isomer, unassigned) [[^68Ga]Ga-HTK03189A], the “Higher tumor uptake than [68Ga]Ga-HTK03189B” value in the data set on LNCaP tumor-bearing mice is given as ~ 2 fold. For the same compound, in the data set with LNCaP tumor-bearing mice (listed as [68Ga]Ga-HTK03189A), the Adrenal glands uptake amounted to 0.35 ± 0.06 %IA/g, the Blood uptake is 0.89 ± 0.22 %IA/g, the “Blood:Salivary gland uptake ratio” value is 4.39 ± 0.44 and the Bone uptake worked out at 0.12 ± 0.03 %IA/g. In the data set with LNCaP tumor-bearing mice (listed as [68Ga]Ga-HTK03189A), this compound displayed a Brain uptake of 0.02 ± 0.00 %IA/g, a Fat uptake of 0.18 ± 0.11 %IA/g, a Heart uptake of 0.24 ± 0.06 %IA/g and an Intestines uptake of 0.31 ± 0.18 %IA/g. In the data set with LNCaP tumor-bearing mice (listed as [68Ga]Ga-HTK03189A), this compound registered a Kidneys uptake of 2.65 ± 0.69 %IA/g, a Lacrimal glands uptake of 0.18 ± 0.18 %IA/g, a Liver uptake of 0.34 ± 0.15 %IA/g and a Lungs uptake of 0.68 ± 0.12 %IA/g. In the data set on LNCaP tumor-bearing mice (listed as [68Ga]Ga-HTK03189A), this compound yielded a Muscle uptake of 0.14 ± 0.04 %IA/g, a Pancreas uptake of 0.15 ± 0.04 %IA/g, a Salivary glands uptake of 0.20 ± 0.04 %IA/g and a Spleen uptake of 0.21 ± 0.10 %IA/g. In the data set with LNCaP tumor-bearing mice (listed as [68Ga]Ga-HTK03189A), this compound showed a Stomach uptake of 0.11 ± 0.06 %IA/g, a Testes uptake of 0.23 ± 0.11 %IA/g, a Thyroid uptake of 0.25 ± 0.05 %IA/g and a Tumor uptake of 2.10 ± 0.28 %IA/g. Further, in the data set with LNCaP tumor-bearing mice (listed as [68Ga]Ga-HTK03189A), the “Tumor:Blood uptake ratio” value was 2.41 ± 0.29, the “Tumor:Kidney uptake ratio” value is 0.83 ± 0.21, the “Tumor:Muscle uptake ratio” value is reported as 16.5 ± 4.08 and the “Tumor:Salivary gland uptake ratio” value was determined as 10.5 ± 1.07. The same compound yielded a Tumor uptake in the data set with LNCaP tumor-bearing mice (listed as [^68Ga]Ga-HTK0189A) of 2.10±0.28 %IA/g.

The values are drawn from paper PMC9475448, “What a difference a methylene makes: replacing Glu with Asp or Aad in the Lys-urea-Glu pharmacophore of PSMA-targeting radioligands to reduce kidney and salivary gland uptake” (Theranostics, 2022).
